Patent US4746737A, “Phenyl guanidinobenzoate derivatives which have protease inhibitory activity” (Kowa Co., Ltd., priority 1985, dated 1988)
Where a name gives a salt, the structure may show the parent alone.

Key:
[1] = molecular target: T1, trypsin (Bos taurus, UniProt P00760); assay: Trypsin inhibitory activity; assay type: biochemical; details: pH 8.0, 37° C., substrate Boc-Phe-Ser-Arg-MCA; read-out: Concentration for 50% inhibition, trypsin
T1 sequence (P00760 24-246): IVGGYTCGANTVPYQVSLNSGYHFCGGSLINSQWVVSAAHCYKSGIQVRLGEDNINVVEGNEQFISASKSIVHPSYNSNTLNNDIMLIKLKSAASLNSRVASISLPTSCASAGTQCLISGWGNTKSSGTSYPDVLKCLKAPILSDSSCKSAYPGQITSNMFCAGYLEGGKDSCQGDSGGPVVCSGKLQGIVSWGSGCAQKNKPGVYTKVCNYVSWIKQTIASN
Protocol: To 0.1 ml of a dimethylsulfoxide solution of a compound to be tested were added 0.3 ml of a 0.1M trishydrochloric acid buffer solution (pH 8.0) containing 10 mM of calcium chloride and 0.1 ml of a solution of 50 ng/ml of trypsin dissolved in the buffer solution, followed by incubation at 37° C. and 10 minutes. Thereafter, 5 microliters of a dimethylformamide solution of 10 mM Boc-Phe-Ser-Arg-MCA, followed by reaction at 37° C. for 30 minutes and addition of 0.5 ml of a 10% acetic acid solution to stop the reaction. The fluorecence of produced 7-amino-4-methylcumarin was measured by the use of a fluorometer (Fluorometer 650-40, by Hitachi Ltd.) under conditions of an excitation wavelength of 380 nm, a wavelength of the fluorescence of 460 nm and a slit width of 2 mm.
The inhibition rate of the respective compounds to be tested was calculated according to the following equation. [formula] in which T represents a measured value of "test specimen+enzyme+substrate", E represents a measured value of "enzyme+substrate", and S represents a measured value of "substrate".

[2] = tested on: rat's blood; assay: Anticoagulant activity (blood coagulation time by thrombelastograph); details: compound 1×10^-4 M, thrombelastogram
Protocol: A compound to be tested was dissolved into a physiological saline solution so as to have the final concentration of 1×10^-4 M and then cooled down by ice. A 0.05 ml of the thus prepared solution was added with 0.5 ml of rat's blood, followed by subjecting the obtained solution to a thrombelastograph (manufactured by Hellige Company). The blood coagulation time (r+k value) was determined by the obtained thrombelastogram.

[3] = Solubility; assay type: physicochemical; details: pH 3.57
[4] = Acute toxicity (LD50), intravenous administration to mice; details: mouse, in vivo
[5] = molecular target: thrombin (Homo sapiens, UniProt P00734); assay: Thrombin inhibitory activity; assay type: biochemical; details: pH 7.4, 37° C., substrate Boc-Val-Pro-Arg-MCA; read-out: Concentration for 50% inhibition, thrombin
Protocol: To 0.1 ml of a dimethylsulfoxide solution of each of compounds to be tested were added 0.3 ml of a 0.1M phosphate buffer solution (pH 7.4) and 0.1 ml of a thrombin solution containing 100 mu/ml of thrombin in the buffer solution, followed by incubation at 37° C. for 10 minutes. To the solution was added […] of dimethylformamide solution of 10 mM Boc-Val-Pro-Arg-MCA for reaction at 37° C. for 30 minutes. Thereafter, the inhibition rate was calculated similar to the case of trypsin.

Row | SMILES | IC50 [1] [nM] | Blood coagulation time (r+k value) [2] [min] | solubility [3] [mg/mL] | LD50 [4] [mg/kg] | IC50 [5] [nM]
1 | N=C(N)Nc1ccc(C(=O)Oc2ccc(C(=O)N3CCN(CC(N)=O)CC3)cc2)cc1 [Example 2, 4-[4-(carbamoylmethyl)piperazinocarbonyl]phenyl 4-guanidinobenzoate.dihydrochloride] | 20 | 26.7 ± 3.3 | > 100 | 150 to 200 | 200
2 | N=C(N)Nc1ccc(C(=O)Oc2ccc(C(=O)N3CCN(CC(=O)N4CCOCC4)CC3)cc2)cc1 [Example 6, 4-[4-(Morpholynocarbonylmethyl)piperazinocarbonyl]phenyl 4-guanidinobenzoate.dihydrochloride] | 6 | 15.3 ± 3.1 | – | 150 to 200 | 400
3 | N=C(N)Nc1ccc(C(=O)Oc2ccc(C(=O)N3CCN(CC(=O)N4CCCC4)CC3)cc2)cc1 [Example 7, 4-[4-(Pyrrolidinocarbonylmethyl)piperazino-carbonyl]phenyl 4-guanidinobenzoate.dihydrochloride] | 7 | 9.7 ± 0.3 | – | 100 to 150 | 400
4 | CC(C)NC(=O)CN1CCN(C(=O)c2ccc(OC(=O)c3ccc(NC(=N)N)cc3)cc2)CC1 [Example 9, 4-[4-(Isopropylcarbamoylmethyl)piperazinocarbonyl]phenyl 4-guanidinobenzoate.dihydrochloride] | 10 | 18.5 | – | 150 to 200 | 400
5 | CCOC(=O)CN1CCN(C(=O)c2ccc(OC(=O)c3ccc(NC(=N)N)cc3)cc2)CC1 [Example 10, 4-[4-(Ethoxycarbonylmethyl)piperazinocarbonyl]phenyl 4-guanidinobenzoate.dihydrochloride] | 20 | 10 | – | 150 to 200 | 400
6 | COc1cc(C(=O)N2CCN(C(C)C)CC2)cc(OC)c1OC(=O)c1ccc(NC(=N)N)cc1 [Example 11, 4-(4-Isopropylpiperazinocarbonyl)-3,5-dimethoxyphenyl 4-gunanidinobenzoate.dihydrochloride] | 400 | – | – | 50 to 100 | –
7 | N=C(N)Nc1ccc(C(=O)Oc2ccc(C(=O)N3CCN(CC(=O)N4CCCCC4)CC3)cc2)cc1 [Example 12, 4-[4-(Piperidinocarbonylmethyl)piperazinocarbonyl]phenyl 4-guanidinobenzoate.dihydrochloride] | 10 | 14.5 | – | 100 to 150 | –
8 | CC(C)N1CCN(C(=O)c2ccc(OC(=O)c3ccc(NC(=N)N)cc3)cc2)CC1 [Example 13, 4-(4-Isopropylpiperazinocarbonyl)phenyl 4-guanidinobenzoate.dihydrochloride] | 20 | 21 ± 3.9 | – | 50 to 100 | –
9 | CC(C(=O)NCCN(C)C)N1CCN(C(=O)c2ccc(OC(=O)c3ccc(NC(=N)N)cc3)cc2)CC1 (centres unmarked) [Example 22, 4-[4-[1-(2-Dimethylaminoethylcarbamoyl)ethyl]piperazinocarbonyl]phenyl 4-guanidinobenzoate.trihydrochloride] | 40 | 20.5 ± 0.8 | – | – | –
10 | N=C(N)Nc1ccc(C(=O)Oc2ccc(C(=O)N3CCN(CCNC(=O)OCc4ccccc4)CC3)cc2)cc1 [Example 25, 4-[4-(2-Benzyloxycarbonylaminoethyl)piperazinocarbonyl]phenyl 4-guanidinobenzoate.dihydrochloride] | 20 | 18.8 ± 1.2 | – | – | –
11 | N=C(N)Nc1ccc(C(=O)Oc2ccc(C(=O)N3CCN(CC(=O)O)CC3)cc2)cc1 [Example 27, 4-[4-(Guanidinobenzoyloxy)benzoyl]piperazino-acetic acid:dihydrochloride] | 40 | 19.2 ± 2.3 | – | – | –
12 | N=C(N)Nc1ccc(C(=O)Oc2ccc(C(=O)N3CCNCC3)cc2)cc1 [Example 29, 4-Piperazinocarbonylphenyl 4-guanidinobenzoate.dihydrochloride] | 30 | 34.8 ± 5.5 | – | – | –
13 | CN1CCN(C(=O)c2ccc(OC(=O)c3ccc(NC(=N)N)cc3)cc2)CC1 [Example 30, 4-(4-Methylpiperazinocarbonyl)phenyl 4-guanidinobenzoate.dihydrochloride] | 30 | 16.5 ± 1.6 | – | – | –
14 | N=C(N)Nc1ccc(C(=O)Oc2ccc(C(=O)N3CCCN(CC(N)=O)CC3)cc2)cc1 [Example 33, 4-(4-Carbamoylmethylhomopiperazinocarbonyl)phenyl 4-guanidinobenzoate.dihydrochloride] | 20 | 32 ± 2.5 | – | – | –
15 | CN(C)CCNC(=O)c1ccc(OC(=O)c2ccc(NC(=N)N)cc2)cc1 [Example 34, 4-(N,N-Dimethylethylenediaminocarbonyl)phenyl 4-guanidinobenzoate.dihydrochloride] | 10 | 41.3 ± 3.9 | – | – | –
16 | CN(C)CCN(C)C(=O)c1ccc(OC(=O)c2ccc(NC(=N)N)cc2)cc1 [Example 37, 4-(N,N,N'-Trimethylethylenediaminocarbonyl)phenyl 4-guanidinobenzoate.dihydrochloride] | 40 | 46.5 ± 4.5 | – | – | –
17 | CN(CCN(C)C(=O)c1ccc(OC(=O)c2ccc(NC(=N)N)cc2)cc1)CC(N)=O [Example 38, 4-[(N-Carbamoylmethyl-N,N'-dimethylethylenediamino)carbonyl]phenyl 4-guanidinobenzoate.dihydrochloride] | 30 | 34.2 ± 1.6 | – | – | –
18 | CN(C)C(=O)COC(=O)Cc1ccc(OC(=O)c2ccc(NC(=N)N)cc2)cc1 [Reference compound A, reference compound] | 50 | 9.8 ± 0.6 | – | 280 | –
19 | CCOC(=O)c1ccc(OC(=O)CCCCCNC(=N)N)cc1 [Reference compound B, reference compound] | 400 | 9.8 ± 1.6 | – | 313 | –
